This passage reports Kd results from ChEMBL document CHEMBL3991601, “The target landscape of clinical kinase drugs” (Science, 2017).

Where a name gives a salt, the structure may show the parent alone. Activity calls are given as the source filed them.

In assay [1] the target is Eukaryotic translation initiation factor 2-alpha kinase 1 (Homo sapiens, UniProt Q9BQI3).
The target in assay [2] is T1, Glycogen phosphorylase, brain form (Homo sapiens, UniProt P11216).
T1 sequence (P11216 whole entry): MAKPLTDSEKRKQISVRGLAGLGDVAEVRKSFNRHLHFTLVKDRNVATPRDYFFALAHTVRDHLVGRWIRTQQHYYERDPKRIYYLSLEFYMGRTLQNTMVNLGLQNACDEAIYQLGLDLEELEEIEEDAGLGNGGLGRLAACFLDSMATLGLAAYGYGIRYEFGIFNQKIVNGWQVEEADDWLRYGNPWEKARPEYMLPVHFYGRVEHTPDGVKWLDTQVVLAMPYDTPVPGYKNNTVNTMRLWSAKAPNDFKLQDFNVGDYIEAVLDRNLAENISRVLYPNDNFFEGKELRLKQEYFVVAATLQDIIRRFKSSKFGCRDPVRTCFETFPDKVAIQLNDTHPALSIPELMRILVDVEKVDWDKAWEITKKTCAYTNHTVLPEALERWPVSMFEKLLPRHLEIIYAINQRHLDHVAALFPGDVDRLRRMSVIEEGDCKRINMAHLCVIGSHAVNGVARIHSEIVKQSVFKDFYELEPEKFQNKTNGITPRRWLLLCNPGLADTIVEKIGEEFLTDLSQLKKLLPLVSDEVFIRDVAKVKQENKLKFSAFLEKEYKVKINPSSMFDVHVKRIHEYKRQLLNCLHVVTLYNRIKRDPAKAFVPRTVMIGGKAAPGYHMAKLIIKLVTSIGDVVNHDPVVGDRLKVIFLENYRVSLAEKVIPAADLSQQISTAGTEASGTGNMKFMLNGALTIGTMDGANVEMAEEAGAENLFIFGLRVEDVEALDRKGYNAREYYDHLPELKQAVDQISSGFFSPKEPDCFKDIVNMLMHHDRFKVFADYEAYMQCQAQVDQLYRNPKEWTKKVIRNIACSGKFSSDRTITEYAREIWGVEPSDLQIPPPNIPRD

For assay [3], the target named is T2, Serine/threonine-protein kinase A-Raf (Homo sapiens, UniProt P10398).
T2 sequence (P10398 whole entry): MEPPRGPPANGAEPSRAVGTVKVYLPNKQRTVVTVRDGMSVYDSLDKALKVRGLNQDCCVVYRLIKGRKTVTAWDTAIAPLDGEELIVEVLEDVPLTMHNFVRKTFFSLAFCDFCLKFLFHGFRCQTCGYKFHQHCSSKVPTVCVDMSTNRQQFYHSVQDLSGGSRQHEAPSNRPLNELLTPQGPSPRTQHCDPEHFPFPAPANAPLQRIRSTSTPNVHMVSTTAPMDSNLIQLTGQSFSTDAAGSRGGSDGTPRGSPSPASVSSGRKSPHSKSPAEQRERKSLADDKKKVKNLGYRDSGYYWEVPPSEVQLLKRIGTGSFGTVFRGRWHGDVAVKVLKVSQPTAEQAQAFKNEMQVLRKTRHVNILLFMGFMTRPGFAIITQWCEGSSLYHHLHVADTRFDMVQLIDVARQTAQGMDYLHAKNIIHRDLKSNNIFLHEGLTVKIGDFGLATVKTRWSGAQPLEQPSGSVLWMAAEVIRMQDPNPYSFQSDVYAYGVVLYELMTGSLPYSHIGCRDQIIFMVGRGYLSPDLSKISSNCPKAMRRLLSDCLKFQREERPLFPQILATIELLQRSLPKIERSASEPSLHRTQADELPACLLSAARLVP

Assay [4] concerns the target Protein kinase C delta type (Homo sapiens, UniProt Q05655).
The target of assay [5] is TRAF2 and NCK-interacting protein kinase (Homo sapiens, UniProt Q9UKE5).
For the next assay, the target named is T3, Septin-9 (Homo sapiens, UniProt Q9UHD8).
T3 sequence (Q9UHD8 whole entry): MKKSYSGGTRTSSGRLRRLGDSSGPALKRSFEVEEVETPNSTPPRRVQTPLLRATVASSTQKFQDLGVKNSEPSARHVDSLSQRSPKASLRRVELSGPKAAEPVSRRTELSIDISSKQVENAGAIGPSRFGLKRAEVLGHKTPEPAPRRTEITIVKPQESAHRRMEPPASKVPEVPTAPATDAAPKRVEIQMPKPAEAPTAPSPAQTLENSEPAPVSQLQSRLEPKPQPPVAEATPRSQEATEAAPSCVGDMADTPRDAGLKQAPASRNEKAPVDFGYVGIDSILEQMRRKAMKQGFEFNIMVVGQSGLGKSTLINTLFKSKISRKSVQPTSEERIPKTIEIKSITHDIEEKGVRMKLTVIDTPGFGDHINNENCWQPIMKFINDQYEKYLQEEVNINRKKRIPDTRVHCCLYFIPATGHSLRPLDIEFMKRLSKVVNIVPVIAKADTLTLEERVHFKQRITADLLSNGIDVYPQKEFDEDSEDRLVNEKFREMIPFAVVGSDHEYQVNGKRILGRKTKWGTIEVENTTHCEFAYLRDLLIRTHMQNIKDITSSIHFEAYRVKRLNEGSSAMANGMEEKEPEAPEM

Assay [6] addresses Phosphatidylethanolamine-binding protein 1 (Homo sapiens, UniProt P30086).

Broadly, the Kd is a measure of binding affinity in units of concentration.
Note: in the data inactive means no Kd found up to 30 µM.

Chain of Protein kinase C delta type (Q05655 whole entry): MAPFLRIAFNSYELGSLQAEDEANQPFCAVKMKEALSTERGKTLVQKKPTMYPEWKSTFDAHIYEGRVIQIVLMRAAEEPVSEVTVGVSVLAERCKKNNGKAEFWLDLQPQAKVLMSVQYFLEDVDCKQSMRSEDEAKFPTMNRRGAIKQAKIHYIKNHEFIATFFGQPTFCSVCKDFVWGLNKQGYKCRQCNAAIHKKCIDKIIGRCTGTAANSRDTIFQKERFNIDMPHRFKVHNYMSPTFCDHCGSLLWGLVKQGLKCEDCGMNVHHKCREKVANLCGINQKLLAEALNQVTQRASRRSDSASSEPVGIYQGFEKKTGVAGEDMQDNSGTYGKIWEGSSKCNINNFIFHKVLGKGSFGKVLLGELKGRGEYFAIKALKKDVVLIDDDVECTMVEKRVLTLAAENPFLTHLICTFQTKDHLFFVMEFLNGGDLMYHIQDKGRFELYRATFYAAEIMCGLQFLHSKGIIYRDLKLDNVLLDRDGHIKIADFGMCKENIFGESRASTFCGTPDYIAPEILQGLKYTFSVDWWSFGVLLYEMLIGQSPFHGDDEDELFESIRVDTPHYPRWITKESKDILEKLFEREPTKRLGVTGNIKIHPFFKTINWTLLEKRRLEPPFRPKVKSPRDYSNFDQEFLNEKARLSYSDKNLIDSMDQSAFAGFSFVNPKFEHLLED
Chain of Phosphatidylethanolamine-binding protein 1 (P30086 whole entry): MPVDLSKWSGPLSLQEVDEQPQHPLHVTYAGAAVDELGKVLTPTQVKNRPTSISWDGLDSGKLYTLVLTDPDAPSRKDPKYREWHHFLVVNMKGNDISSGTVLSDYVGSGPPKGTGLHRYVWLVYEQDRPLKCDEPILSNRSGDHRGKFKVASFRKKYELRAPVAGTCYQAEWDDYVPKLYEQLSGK
Chain of TRAF2 and NCK-interacting protein kinase (Q9UKE5 whole entry): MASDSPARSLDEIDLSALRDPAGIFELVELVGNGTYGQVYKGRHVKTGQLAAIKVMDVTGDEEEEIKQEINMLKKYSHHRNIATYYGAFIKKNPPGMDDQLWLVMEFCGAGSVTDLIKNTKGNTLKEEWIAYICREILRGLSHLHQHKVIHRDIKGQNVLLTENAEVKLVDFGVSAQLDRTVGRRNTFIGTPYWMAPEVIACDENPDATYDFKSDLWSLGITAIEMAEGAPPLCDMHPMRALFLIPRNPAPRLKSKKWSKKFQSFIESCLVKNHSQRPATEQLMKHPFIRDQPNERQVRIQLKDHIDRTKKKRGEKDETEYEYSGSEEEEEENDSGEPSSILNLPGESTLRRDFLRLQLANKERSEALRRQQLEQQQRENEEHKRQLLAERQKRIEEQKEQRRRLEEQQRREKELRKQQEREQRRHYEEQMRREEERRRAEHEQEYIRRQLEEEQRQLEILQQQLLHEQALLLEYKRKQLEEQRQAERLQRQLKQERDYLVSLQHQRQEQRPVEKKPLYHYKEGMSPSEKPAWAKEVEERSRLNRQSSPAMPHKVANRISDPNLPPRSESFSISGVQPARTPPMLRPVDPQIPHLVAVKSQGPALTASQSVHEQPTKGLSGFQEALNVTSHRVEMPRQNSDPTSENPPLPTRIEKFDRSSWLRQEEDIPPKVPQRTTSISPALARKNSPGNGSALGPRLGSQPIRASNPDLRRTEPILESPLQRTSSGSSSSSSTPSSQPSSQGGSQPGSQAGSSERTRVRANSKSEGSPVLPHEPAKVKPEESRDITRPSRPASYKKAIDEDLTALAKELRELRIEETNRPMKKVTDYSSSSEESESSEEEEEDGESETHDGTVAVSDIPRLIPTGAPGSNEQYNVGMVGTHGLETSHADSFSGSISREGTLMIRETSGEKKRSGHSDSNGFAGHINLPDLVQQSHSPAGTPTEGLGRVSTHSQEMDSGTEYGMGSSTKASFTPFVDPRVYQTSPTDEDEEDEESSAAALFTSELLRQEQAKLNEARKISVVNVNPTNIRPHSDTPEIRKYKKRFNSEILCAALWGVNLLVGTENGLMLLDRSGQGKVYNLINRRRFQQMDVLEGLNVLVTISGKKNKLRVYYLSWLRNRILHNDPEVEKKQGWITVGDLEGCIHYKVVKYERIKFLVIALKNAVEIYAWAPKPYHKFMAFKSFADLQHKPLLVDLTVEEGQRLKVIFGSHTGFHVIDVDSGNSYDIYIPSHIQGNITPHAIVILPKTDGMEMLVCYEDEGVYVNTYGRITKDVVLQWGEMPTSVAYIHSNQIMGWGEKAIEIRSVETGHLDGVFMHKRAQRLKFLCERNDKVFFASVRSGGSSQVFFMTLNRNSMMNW
Chain of Eukaryotic translation initiation factor 2-alpha kinase 1 (Q9BQI3 whole entry): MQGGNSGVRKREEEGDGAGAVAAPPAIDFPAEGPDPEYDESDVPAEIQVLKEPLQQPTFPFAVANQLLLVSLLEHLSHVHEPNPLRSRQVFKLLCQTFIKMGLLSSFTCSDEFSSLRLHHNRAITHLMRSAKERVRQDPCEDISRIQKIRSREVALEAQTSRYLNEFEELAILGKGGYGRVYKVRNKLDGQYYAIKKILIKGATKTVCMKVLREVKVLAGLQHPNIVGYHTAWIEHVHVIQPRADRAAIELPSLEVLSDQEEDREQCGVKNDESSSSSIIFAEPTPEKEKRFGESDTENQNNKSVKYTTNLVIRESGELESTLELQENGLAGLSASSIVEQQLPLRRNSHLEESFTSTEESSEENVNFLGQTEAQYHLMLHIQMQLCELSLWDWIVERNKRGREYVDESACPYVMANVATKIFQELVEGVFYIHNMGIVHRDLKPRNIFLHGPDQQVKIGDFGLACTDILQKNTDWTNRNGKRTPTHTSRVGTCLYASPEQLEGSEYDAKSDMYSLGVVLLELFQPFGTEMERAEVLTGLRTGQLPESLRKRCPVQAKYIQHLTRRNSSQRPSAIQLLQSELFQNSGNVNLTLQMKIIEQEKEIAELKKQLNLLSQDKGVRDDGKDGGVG

`C[C@H]1CNCCCN1S(=O)(=O)c1cccc2cncc(F)c12`: the Kd in assay [1] is > 30 µM (inactive); in assay [2] it was > 30 µM (inactive); in assay [3], > 30 µM (inactive); in assay [4] it was 2.47 µM (active); in assay [5], > 30 µM (inactive); on Septin-9, > 30 µM (inactive).
As for `CC(=O)c1cnc2ccc(-c3cc(Cl)c(O)c(Cl)c3)nc2c1N[C@H]1CC[C@H](CN(C)C)CC1`, the Kd (in assay [1]; in assay [2]; in assay [3]; at Septin-9; in assay [6]) was > 30 µM (inactive) throughout.
Consider `CCNC(=O)C#Cc1ccc2c(c1)NC(=O)/C2=C(\Nc1ccc(CN(C)C)cc1)c1ccccc1`, for which the Kd (in assay [1]; in assay [2]; in assay [4]; in assay [5]; at Septin-9) was > 30 µM (inactive) each time.
With `Nc1ncnc2c1c(-c1cccc(OCc3ccccc3)c1)cn2[C@H]1C[C@@H](CN2CCC2)C1` [AEW-541], the Kd (in assay [1]; in assay [2]; in assay [3]; in assay [4]; in assay [5]; at Septin-9) was > 30 µM (inactive) in each case.
On to `C=CC(=O)Nc1cc2c(Nc3ccc(F)c(Cl)c3)ncnc2cc1C#CC(C)(C)N1CCN(C)CC1` [AV-412 FREE BASE], for which the Kd (in assay [1]; in assay [2]; in assay [3]; in assay [4]; in assay [5]; at Septin-9) was > 30 µM (inactive) in each case.
Turning to `CNC(=O)c1ccccc1Sc1ccc2c(/C=C/c3ccccn3)n[nH]c2c1` [AXITINIB], the Kd (in assay [2]; in assay [3]; on Septin-9; in assay [6]) was > 30 µM (inactive) in each case.
Take `Cc1cc(C(=O)NOCCO)c(Nc2ccc(I)cc2F)n(C)c1=O` [AZD-8330]: the Kd was 1.82 µM in assay [1]; > 30 µM (inactive) in assay [2]; > 30 µM (inactive) in assay [3]; > 30 µM (inactive) in assay [4]; > 30 µM (inactive) in assay [5]; > 30 µM (inactive) at Septin-9.
Turning to `CCS(=O)(=O)N1CCN(c2ccc(Nc3ncc(C(N)=O)c(NC4CC4)n3)cc2)CC1` [Cerdulatinib Hydrochloride], the Kd was 3.72 µM in assay [1]; > 30 µM (inactive) in assay [2]; > 30 µM (inactive) in assay [3]; 3.82 µM (active) in assay [4]; > 30 µM (inactive) in assay [5]; > 30 µM (inactive) at Septin-9.
For `Cn1cc(C2=C(c3cn(C4CCN(Cc5ccccn5)CC4)c4ccccc34)C(=O)NC2=O)c2ccccc21` [ENZASTAURIN], the Kd (in assay [2]; in assay [3]; at Septin-9; in assay [6]) was > 30 µM (inactive) throughout.
On to `C[C@@H](Oc1cc(-n2cnc3ccc(CN4CCN(C)CC4)cc32)sc1C(N)=O)c1ccccc1C(F)(F)F` [GSK-461364], for which the Kd (in assay [2]; in assay [3]; on Septin-9; in assay [6]) was > 30 µM (inactive) in each case.
`CCn1cc(-c2ccnc3[nH]c(-c4cccc(CN(C)C)c4)cc23)c(-c2ccc(NC(=O)N(C)C)cc2)n1` [GSK-1070916]: the Kd (in assay [1]; in assay [2]; in assay [3]; in assay [4]; in assay [5]; on Septin-9) was > 30 µM (inactive) each time.
Turning to `COc1ccc(S(=O)(=O)N(C(C)=O)c2ccccc2/C=C/c2cc[n+]([O-])cc2)cc1` [HMN-214], the Kd (in assay [1]; in assay [2]; in assay [3]; in assay [4]; in assay [5]; on Septin-9) was > 30 µM (inactive) throughout.
Consider `CNC(=O)c1nn(C)c2c1C(C)(C)Cc1cnc(Nc3ccc(N4CCN(C)CC4)cc3)nc1-2` [MILCICLIB], for which the Kd (in assay [1]; in assay [2]; in assay [3]; in assay [4]; on Septin-9) was > 30 µM (inactive) in each case.
In the case of `Cc1[nH]c(/C=C2\C(=O)Nc3ccccc32)c(C)c1CCC(=O)O` [ORANTINIB], the Kd is > 30 µM (inactive) in assay [1]; > 30 µM (inactive) in assay [2]; > 30 µM (inactive) in assay [3]; 0.012 µM in assay [5]; > 30 µM (inactive) at Septin-9.
`CCOc1cc2ncc(C#N)c(Nc3ccc(F)c(Cl)c3)c2cc1NC(=O)/C=C/CN(C)C` [PELITINIB]: the Kd (in assay [1]; in assay [2]; in assay [3]; at Septin-9; in assay [6]) was > 30 µM (inactive) in each case.
As to `CC(=O)NCC(=O)N1[C@@H]2CC[C@H]1c1ccc(Nc3ncc(C(F)(F)F)c(NC4CCC4)n3)cc12` [PF-03814735], the Kd was > 30 µM (inactive) in assay [1]; > 30 µM (inactive) in assay [2]; > 30 µM (inactive) in assay [3]; 0.746 µM (active) in assay [5]; > 30 µM (inactive) at Septin-9.
Consider `CNC(=O)c1cc(Oc2ccc(NC(=O)Nc3cc(C(C)(C)C)nn3-c3ccc4ncccc4c3)c(F)c2)ccn1` [REBASTINIB], for which the Kd in assay [2] is > 30 µM (inactive); in assay [3], 33.7 µM (active); in assay [4], > 30 µM (inactive); in assay [5], 1.88 µM (active); at Septin-9, > 30 µM (inactive).
On to `O=C(NOCCO)c1cc(CN2OCCCC2=O)c(F)c(F)c1Nc1ccc(I)cc1F` [RO-4987655], for which the Kd (in assay [2]; in assay [3]; on Septin-9; in assay [6]) was > 30 µM (inactive) each time.
In the case of `N#CC[C@H](C1CCCC1)n1cc(-c2ncnc3[nH]ccc23)cn1` [RUXOLITINIB], the Kd (in assay [2]; in assay [3]; at Septin-9; in assay [6]) was > 30 µM (inactive) each time.
In the case of `CN1CCN(CCOc2cc(OC3CCOCC3)c3c(Nc4c(Cl)ccc5c4OCO5)ncnc3c2)CC1` [SARACATINIB], the Kd in assay [1] was > 30 µM (inactive); in assay [2], > 30 µM (inactive); in assay [3], > 30 µM (inactive); in assay [4] it was > 30 µM (inactive); in assay [5] it was 1.38 µM (active); at Septin-9, > 30 µM (inactive).
